Read-outs that look alike come from different tables or passages of the source.
Assays:
[1] = biological target: T1, Full-length (FL)-PRMT5-MEP50 enzyme complex (Homo sapiens, UniProt O14744); assay: PRMT5-MEP50 Enzyme Methylation Assay (Version A); type: biochemical
T1 construct: Full-length (FL)-PRMT5-MEP50 enzyme complex (recombinant proteins from baculovirus-transfected Sf21 cells: FL-PRMT5; MW=73837 kDa and FL-MEP50; MW=38614); made in house; host or cells: baculovirus-transfected Sf21 cells
T1 sequence (O14744 whole entry): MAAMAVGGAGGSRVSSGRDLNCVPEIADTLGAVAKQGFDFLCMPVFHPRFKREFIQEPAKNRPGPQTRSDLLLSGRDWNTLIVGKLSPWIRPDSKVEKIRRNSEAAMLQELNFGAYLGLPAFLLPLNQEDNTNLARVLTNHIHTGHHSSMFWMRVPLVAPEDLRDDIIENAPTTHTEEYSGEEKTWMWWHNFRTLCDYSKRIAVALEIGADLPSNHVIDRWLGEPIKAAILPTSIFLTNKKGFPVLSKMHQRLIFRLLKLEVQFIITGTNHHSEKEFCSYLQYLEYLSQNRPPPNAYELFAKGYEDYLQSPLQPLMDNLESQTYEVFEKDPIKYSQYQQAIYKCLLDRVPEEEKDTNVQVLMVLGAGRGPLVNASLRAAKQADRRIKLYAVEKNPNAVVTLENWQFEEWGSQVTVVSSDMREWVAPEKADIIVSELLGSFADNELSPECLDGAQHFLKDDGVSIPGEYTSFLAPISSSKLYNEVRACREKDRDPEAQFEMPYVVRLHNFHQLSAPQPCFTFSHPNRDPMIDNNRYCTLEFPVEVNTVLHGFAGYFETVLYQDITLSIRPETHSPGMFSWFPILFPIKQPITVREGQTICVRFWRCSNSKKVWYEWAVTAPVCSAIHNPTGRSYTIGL
T1 sequence (Q9BQA1 whole entry partner): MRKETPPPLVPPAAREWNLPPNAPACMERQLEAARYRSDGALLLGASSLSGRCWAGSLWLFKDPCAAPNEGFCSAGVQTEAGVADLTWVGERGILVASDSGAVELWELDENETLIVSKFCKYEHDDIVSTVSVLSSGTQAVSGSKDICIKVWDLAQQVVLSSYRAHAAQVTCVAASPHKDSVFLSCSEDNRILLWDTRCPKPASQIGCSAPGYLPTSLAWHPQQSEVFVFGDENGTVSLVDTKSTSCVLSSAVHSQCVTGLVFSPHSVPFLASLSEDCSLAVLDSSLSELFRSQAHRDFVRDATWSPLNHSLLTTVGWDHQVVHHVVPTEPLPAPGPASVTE
Procedure, shortened: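 Compound was pre-incubated with enzyme for 60 min, then reacted 150 min at 37° C. at final 1.0 nM PRMT5-MEP50, 15 μM SAM and 75 nM biotinylated H4R3(Me1) peptide, in 50 mM Bicine pH 8.0 with 1% DMSO. SAMDI mass-spectrometric readout of Me1→Me2 conversion. EC50 from 4- or 7-parameter regression.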

[2] = test system: symmetric dimethylation of arginine (SDMA) of PRMT5 substrates in MCF-7 cells; assay: PRMT5 Cell Target Engagement (TE) Assay; type: cell-based; conditions: 3 days treatment, SDMA high content imaging
Procedure, shortened: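 MCF-7 cells treated 3 days at 37 °C with a ten-point 1:3 titration from 10000 nM. Fixed cells immunostained with anti-SDMA and Alexa488 secondary; nuclear fluorescence quantified by high-content imaging versus DMSO wells, with IC50 from a 4-parameter fit.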

[3] = second value of 7 parameter biphasic fit, read-out: Enzyme Methylation Assay Version A (EC50 2)
[4] = single EC50 = 4 parameter single site sigmoidal fit, EC50 1 = first value of 7 parameter biphasic fit, read-out: Enzyme Methylation Assay Version A (EC50 or EC50 1)

| Compound | EC50 [1, 3] [nM] | EC50 [1, 4] [nM] | EC50 ([2]; Homo sapiens, MCF7, 72 h) [nM] | EC50 [2] [nM] |
| --- | --- | --- | --- | --- |
| Cc1cnc2nc(C(=O)N3CC[C@]4(Cc5ccccc5CN4)[C@H](O)C3)cn2c1C [Example 127, (5,6-dimethylimidazo[1,2-a]pyrimidin-2-yl)[(3R,3′R)-3′^-hydroxy-1,4-dihydro-1′H,2H-spiro[isoquinoline-3,4′-piperidin]-1′-yl]methanone] | 34300 | 61.7 | 3950 |  |
| Cc1ccc(C(=O)N2CC[C@]3(Cc4ccccc4CN3)[C@H](O)C2)c(C2CC2)n1 [Example 199, (2-cyclopropyl-6-methyl-3-pyridinyl)[(3R,3′R)-3′-hydroxy-1,4-dihydro-1′H,2H-spiro[isoquinoline-3,4′-piperidin]-1′-yl]methanone] | 7240 | 4.08 | 503 |  |
| Cc1nn(C)c2[nH]c(C(=O)N3CC[C@]4(Cc5ccccc5CN4)[C@H](O)C3)cc(=O)c12 [Example 191, 6-{[(3R,3′R)-3′-hydroxy-1,4-dihydro-1′H,2H-spiro[isoquinoline-3,4′-piperidin]-1′-yl]carbonyl}-1,3-dimethyl-1,7-dihydro-4H-pyrazolo[3,4-b]pyridin-4-one] |  | 2880 | ≥ 10000 |  |
| COc1nccc(-c2cc([C@@H](C)OC)c3nc(C(=O)N4CC[C@]5(Cc6ccccc6CN5)[C@H](O)C4)cn3c2)n1 [Example 240, [(3R,3′R)-3′-hydroxy-1,4-dihydro-1′H,2H-spiro[isoquinoline-3,4′-piperidin]-1′-yl]{8-[(1R)-1-methoxyethyl]-6-(2-methoxy-4-pyrimidinyl)imidazo[1,2-a]pyridin-2-yl}methanone] | 112 | 0.376 | 21 |  |
| Cc1cn2cc(C(=O)N3CC[C@]4(Cc5ccccc5CN4)[C@H](O)C3)nc2c(O)n1 [Example 66, 2-{[(3R,3′R)-3′-hydroxy-1,4-dihydro-1′H,2H-spiro[isoquinoline-3,4′-piperidin]-1′-y1]carbonyl}-6-methylimidazo[1,2-a]pyrazin-8(7H)-one] | 9330 | 13.7 | 4410 |  |
| COc1nc(Br)cn2cc(C(=O)N3CC[C@]4(Cc5ccccc5CN4)[C@H](O)C3)nc12 [Example 8] | 403 | 1.53 | 3.63 |  |
| Cc1nc2nc(C(=O)N3CC[C@]4(Cc5ccccc5CN4)[C@H](O)C3)cn2cc1C1CC1 [Example 63, (6-cyclopropyl-7-methylimidazo[1,2-a]pyrimidin-2-yl)[(3R,3′R)-3′-hydroxy-1,4-dihydro-1′H,2H-spiro[isoquinoline-3,4′-piperidin]-1′-yl]methanone] | 417 | 0.583 | 45.8 |  |
| Cn1nccc1-c1cnc2nc(C(=O)N3CC[C@]4(Cc5ccccc5CN4)[C@H](O)C3)cn2c1 [Example 78, [(3R,3′R)-3′-hydroxy-1,4-dihydro-1′H,2H-spiro[isoquinoline-3,4′-piperidin]-1′-yl][6-(1-methyl-1H-pyrazol-5-yl)imidazo[1,2-a]pyrimidin-2-yl]methanone] | 76.7 | 0.508 | 45.3 |  |
| CO[C@H](C)c1cccn2cc(C(=O)N3CC[C@]4(Cc5ccccc5CN4)[C@H](O)C3)nc12 [Example 237, [(3R,3′R)-3′-hydroxy-1,4-dihydro-1′H,2H-spiro[isoquinoline-3,4′-piperidin]-1′-yl]{8-[(1R)-1-methoxyethyl]imidazo[1,2-a]pyridin-2-yl}methanone] | 1840 | 9.13 | 258 |  |
| Cc1cc(C(F)(F)F)cn2cc(C(=O)N3CC[C@]4(Cc5ccccc5CN4)[C@H](O)C3)nc12 [Example 35, ((3R,3’R)-3′-hydroxy-1,4-dihydro-2H-spiro[isoquinoline-3,4′-piperidin]-1′-yl)(8-methyl-6-(trifluoromethyl)imidazo[1,2-a]pyridin-2-yl)methanone] | 248 | 0.766 | 5.66 |  |
| Cc1cc(C)n2nc(C(=O)N3CC[C@]4(Cc5ccccc5CN4)[C@H](O)C3)nc2n1 [Example 178, (5,7-dimethyl-[1,2,4]triazolo[1,5-a]pyrimidin-2-yl)((3R,3′R)-3′-hydroxy-1,4-dihydro-2H-spiro[isoquinoline-3,4′-piperidin]-1′-yl)methanone] | 85100 | 129 | 3210 |  |
| COC(C)c1ccc2nc(C(=O)N3CC[C@]4(Cc5ccccc5CN4)[C@H](O)C3)cn2c1 (single isomer, unassigned) [Example 23, ((3R,3’R)-3′-hydroxy-1,4-dihydro-2H-spiro[isoquinoline-3,4′-piperidin]-1-yl)(6-((R or S)-1-methoxyethyl)imidazo[1,2-a]pyridin-2-yl)methanone] | 851 | 1.8 |  | 46.4 |
| O=C(c1ccc(-n2cnnn2)cn1)N1CC[C@]2(Cc3ccccc3CN2)[C@H](O)C1 [Example 192, [(3R,3′R)-3′-hydroxy-1,4-dihydro-1′H,2H-spiro[isoquinoline-3,4′-piperidin]-1′-yl][5-(1H-tetrazol-1-yl)-2-pyridinyl]methanone] | 34700 | 112 | ≥ 10000 |  |
| COC(C)c1ccc2nc(C(=O)N3CC[C@]4(Cc5ccccc5CN4)[C@H](O)C3)cn2c1 (single isomer, unassigned) [Example 22, ((3R,3’R)-3′-hydroxy-1,4-dihydro-2H-spiro[isoquinoline-3,4′-piperidin]-1′-yl)(6-((S or R)-1-methoxyethyl)imidazo[1,2-a]pyridin-2-yl)methanone] | 439 | 0.674 |  | 16.8 |
| CC1CC(C(F)(F)F)Cn2cc(C(=O)N3CC[C@]4(Cc5ccccc5CN4)[C@H](O)C3)nc21 (single isomer, unassigned) [Example 166, ((3R,3′R)-3′-hydroxy-1,4-dihydro-2H-spiro[isoquinoline-3,4′-piperidin]-1′-yl)((6R,8R or 6S,8S)-8-methyl-6-(trifluoromethyl)-5,6,7,8-tetrahydroimidazo[1,2-a]pyridin-2-yl)methanone] | 1640 | 3.64 |  | 33.7 |

Second part, the compound after the results:

| EC50 [1, 3] [nM] | EC50 [1, 4] [nM] | EC50 ([2]; Homo sapiens, MCF7, 72 h) [nM] | EC50 [2] [nM] | Compound |
| --- | --- | --- | --- | --- |
| 398 | 2.1 | 22.6 |  | COC(C)c1cc(Br)cn2cc(C(=O)N3CC[C@]4(Cc5cc(Cl)ccc5CN4)[C@H](O)C3)nc12 (single isomer, unassigned) [Example 225] |
|  | 144 | 254 |  | Cc1ccc2c(c1)CN[C@@]1(CCN(C(=O)c3cn4cc(C5CC5)cnc4n3)C[C@H]1O)C2 [Example 228] |
| 52.5 | 0.639 | 0.545 |  | O=C(c1cn2cc(Br)cc(I)c2n1)N1CC[C@]2(Cc3ccccc3CN2)[C@H](O)C1 [Example 7] |
| 36700 | 96.6 |  | 1590 | O=C(c1cn2c(n1)C(C1CCOC1)CC(C(F)(F)F)C2)N1CC[C@]2(Cc3ccccc3CN2)[C@H](O)C1 (single isomer, unassigned) [Example 163, ((3R,3′R)-3′-hydroxy-1,4-dihydro-2H-spiro[isoquinoline-3,4′-piperidin]-1′-yl)((6S,8S or 6R,8R)-8-((S or R)-tetrahydrofuran-3-yl)-6-(trifluoromethyl)-5,6,7,8-tetrahydroimidazo[1,2-a]pyridin-2-yl)methanone] |
| 21900 | 16.2 | 995 |  | Cc1cc2nnc(C(=O)N3CC[C@]4(Cc5ccccc5CN4)[C@H](O)C3)c(C)n2n1 [Example 184, (4,7-dimethylpyrazolo[5,1-c][1,2,4]triazin-3-yl)((3R,3′R)-3′-hydroxy-1,4-dihydro-2H-spiro[isoquinoline-3,4′-piperidin]-1′-yl)methanone] |
| 234 | 0.602 | 22.6 |  | COCCN(C)c1cc([C@@H](C)OC)c2nc(C(=O)N3CC[C@]4(Cc5ccccc5CN4)[C@H](O)C3)cn2c1 [Example 229, [(3R,3′R)-3′-hydroxy-1,4-dihydro-1′H,2H-spiro[isoquinoline-3,4′-piperidin]-1′-yl]{8-[(1R)-1-methoxyethyl]-6-[(2-methoxyethyl)(methyl)amino]imidazo[1,2-a]pyridin-2-yl}methanone] |
| 3890 | 3.74 | 256 |  | O=C(c1cn2cccc(Br)c2n1)N1CC[C@]2(Cc3ccccc3CN2)[C@H](O)C1 [Example 209, (8-bromoimidazo[1,2-a]pyridin-2-yl)[(3R,3′R)-3′-hydroxy-1,4-dihydro-1′H,2H-spiro[isoquinoline-3,4′-piperidin]-1′-yl]methanone] |
| 26600 | 82.2 |  | 841 | N#CCCC1CC(C(F)(F)F)Cn2cc(C(=O)N3CC[C@]4(Cc5ccccc5CN4)[C@H](O)C3)nc21 (single isomer, unassigned) [Example 165, 3-((6R,8S or 6S,8R)-2-((3R,3′R)-3′-hydroxy-1,4-dihydro-2H-spiro[isoquinoline-3,4′-piperidine]-1′-carbonyl)-6-(trifluoromethyl)-5,6,7,8-tetrahydroimidazo[1,2-a]pyridin-8-yl)propanenitrile] |
| 2600 | 83.2 | 2100 |  | Cc1ccc(C(=O)N2CC[C@]3(Cc4ccccc4CN3)[C@H](O)C2)c(C)n1 [Example 220, (2,6-dimethyl-3-pyridinyl)[(3R,3′R)-3′-hydroxy-1,4-dihydro-1′H,2H-spiro[isoquinoline-3,4′-piperidin]-1′-yl]methanone] |

— patent US12441730B2, “PRMT5 inhibitors” (Merck Sharp & Dohme LLC, priority 2019, dated 2025)
